{"source": "patent US10730849B2", "about": "“Benzo[b]thiophene compounds as STING agonists” (MERCK SHARP & DOHME CORP., priority 2016, dated 2020)", "key": {"full-length HAQ STING": {"target": "full-length HAQ STING (Homo sapiens (Human), UniProt Q86WV6, G230A/H232R/R293Q/R71H)", "sequence (Q86WV6 other isoform, or with tags, fused parts or gaps, stated change not applied)": "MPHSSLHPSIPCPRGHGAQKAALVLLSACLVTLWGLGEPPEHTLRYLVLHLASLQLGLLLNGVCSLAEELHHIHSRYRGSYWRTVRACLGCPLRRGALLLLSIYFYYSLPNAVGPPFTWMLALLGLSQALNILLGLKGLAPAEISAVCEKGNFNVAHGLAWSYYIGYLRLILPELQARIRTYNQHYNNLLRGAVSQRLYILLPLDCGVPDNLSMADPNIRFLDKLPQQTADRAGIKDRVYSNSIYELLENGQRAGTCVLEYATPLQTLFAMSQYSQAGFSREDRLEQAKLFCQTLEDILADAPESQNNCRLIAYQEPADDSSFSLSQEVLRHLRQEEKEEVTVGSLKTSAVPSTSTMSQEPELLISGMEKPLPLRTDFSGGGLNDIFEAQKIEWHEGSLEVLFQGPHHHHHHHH", "experiment": "3H-cGAMP filtration binding assay (HAQ STING)", "details": "competition with tritiated cGAMP, HAQ STING membrane", "from_the_text": "The ability of compounds to bind STING is quantified by the ability to compete with tritiated cGAMP ligand for human STING receptor membrane using a radioactive filter-binding assay. The binding assay employs STING receptor obtained from Hi-Five cell membranes overexpressing full-length HAQ STING prepared in-house and tritiated cGAMP ligand also purified in-house.\n(§1) The ability of compounds to bind STING is quantified by their ability to compete with tritiated cGAMP ligand for human STING receptor membrane using a radioactive filter-binding assay. The binding assay employs STING receptor obtained from Trichoplusia ni cell membranes (T. ni; Expression Systems, cat #94-002F, www.exressionsystems.com) overexpressing full-length HAQ STING and tritiated cGAMP ligand.\nThe basic HAQ STING filtration assay protocol is as follows:\nCompound and membrane then preincubated for 60 min at RT to allow compound binding to equilibrate. Following equilibration, 8 nM of [^3H]c-GAMP ligand was prepared by diluting into assay buffer, and 50 uL of this working stock was then manually added to each well of the assay plate. […] The filter plates were then dried at 55° C. for 30 min using a pressurized oven before 30 uL of ULTIMA GOLD F scintillate was added to each well. Tritium levels for each reaction well were then measured using a PerkinElmer TopCount plate reader.\n(§2) After normalization to controls, the percent activity for each compound concentration was calculated by measuring the amount of remaining radioactivity. The plot of percent activity versus the log of compound concentration was fit with a 4-parameter dose response equation to calculate EC50 values."}, "full-length WT STING": {"target": "full-length WT STING (Homo sapiens (Human), UniProt Q86WV6, H232R)", "sequence (Q86WV6 other isoform, or with tags, fused parts or gaps H232R (already in the parent))": "as the sequence (Q86WV6 other isoform, or with tags, fused parts or gaps, stated change not applied) above, with H71R, A230G, Q293R counted along it", "experiment": "3H-cGAMP filtration binding assay (WT STING)", "details": "WT STING, compound at 20 uM", "from_the_text": "as §1, with “www.expressionsystems.com)” for “www.exressionsystems.com)”, “WT” for “HAQ”\nThe basic WT STING filtration assay protocol is as follows:\nThe filter plates were then dried at 55° C. for 30 min using a pressurized VWR oven before 30 uL of ULTIMA GOLD F scintillate was added to each well. Tritium levels for each reaction well were then measured using a PerkinElmer TopCount plate reader.\nas §2"}, "THP1 cells": {"test_system": "THP1 cells", "experiment": "IFN-β secretion in THP1 cell culture (5 h)", "assay_type": "cell-based, human", "details": "relative to 30 uM cGAMP", "procedure": "The ability of compounds to stimulate the secretion of interferon-beta from THP1 cells was measured using a human IFN-3 AlphaLISA kit (Perkin Elmer, Cat. No. AL265F). The basic protocol is as follows:\nThe cell viability and count was ascertained using a Beckman Coulter V-Cell XR cell counter. The cells suspension was centrifuged at 200×g for 5 min at RT. Cells were resuspended to a density of 0.8×10^6/mL in 37° C. assay medium. Subsequent liquid transfers were performed using either a Matrix electronic multichannel pipette or an Agilent Bravo Automated Liquid Handling Platform.\nThe assay was started by dispensing 40 μL of the previously prepared cell suspension into the wells of the plate containing compounds. After 5 h incubation at 37° C., 5% CO2 in a humidified atmosphere, the plate of cells and compounds was centrifuged at 200×g for 5 min at RT. […] To these supernatant-containing wells was added 10 μL of 5× Anti-Analyte Acceptor beads ([…] of AlphaLISA HiBlock Buffer) and incubated for 30 min at RT while shaking on an orbital plate shaker. To each well was added 10 μL of 5× Biotinylated Antibody Anti-analyte (5 nM in AlphaLISA HiBlock Buffer) and incubated on an orbital plate shaker for 60 min at RT or overnight at 4° C. To each well was added 25 μL of 2× SA-Donor beads ([…] in AlphaLISA HiBlock Buffer) and incubated for 30-45 min at RT in the dark while shaking on an orbital plate shaker. The plate was then read on a Perkin Elmer Envision (λex=680 nm, […]). The percent effect of the AlphaLISA signal at each compound concentration was calculated based on 30 uM cGAMP positive controls and 0.3% DMSO negative controls. The plot of percent effect versus the log of compound concentration was fit with a 4-parameter concentration response equation to calculate EC50 values.\nCompounds of the disclosure were evaluated for IFN-3 secretion in THP1 cell culture as described above."}}, "data": [{"substance": "(S)-4-(5,6-dimethylbenzo [b]thiophen-2-y1)- 2-methyl-4- oxobutanoic acid [Example 31]", "values": [{"measurement": "EC50", "setting": "full-length HAQ STING", "result": 5.94, "unit": "µM"}, {"measurement": "% Inh @ 20 uM", "setting": "full-length WT STING", "result": 10, "unit": "% Inh @ 20 μM"}, {"measurement": "% Effect at 30 μM relative to 2’3’-cGAMP", "setting": "THP1 cells", "result": 24, "unit": "%"}]}]}
